Experimental data published in patent publication US12344597B2, “Alkoxy-substituted pyridinyl derivatives as LPA1 receptor antagonists and their use in the treatment of fibrosis” (IDORSIA PHARMACEUTICALS LTD, priority 2018, dated 2025).

Each compound was assayed against human LPA1 receptor (Homo sapiens (Human), UniProt Q92633) (assay: Beta-arrestin recruitment assay to determine IC50 values for human LPAR1). Details: antagonist mode, Tango EDG2-bla U2OS cells, LPA 18:1 500 nM final.
Type: cell-based
In short: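 Antagonist IC50 = concentration giving 50% inhibition of maximal LPA response. Read-out is beta-lactamase reporter activity after arrestin-protease recruitment in U2OS cells bearing LPA1-TEV-Gal4-VP16 construct; cells pre-incubated 20 h, 37 °C, 5% CO2.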

Sequence of human LPA1 receptor (Q92633 whole entry): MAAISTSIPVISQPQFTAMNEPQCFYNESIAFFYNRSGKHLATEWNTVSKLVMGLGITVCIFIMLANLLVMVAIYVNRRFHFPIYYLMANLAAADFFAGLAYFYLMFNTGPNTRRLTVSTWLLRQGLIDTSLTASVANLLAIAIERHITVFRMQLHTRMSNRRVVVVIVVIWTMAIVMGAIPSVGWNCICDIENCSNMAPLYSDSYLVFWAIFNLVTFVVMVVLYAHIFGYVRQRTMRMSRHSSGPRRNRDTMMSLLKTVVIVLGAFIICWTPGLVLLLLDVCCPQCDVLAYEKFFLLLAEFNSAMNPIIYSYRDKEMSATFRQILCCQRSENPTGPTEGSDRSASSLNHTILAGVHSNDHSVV

IC50	Compound
7 nM	COC(=O)C1(CNC(=O)N2CC(C(=O)Nc3ccc(C)nc3OC(F)F)(c3ccccc3C(C)C)C2)CC1 [Ex 17-14, methyl 1-((3-((2-(difluoromethoxy)-6-methylpyridin-3-yl)carbamoyl)-3-(2-isopropylphenyl)azetidine-1-carboxamido)methyl)cyclopropane-1-carboxylate]
17 nM	Cc1ccc(NC(=O)C2(c3ccccc3C(C)C)CN(C(=O)CN3CC(O)C3)C2)c(OC(F)F)n1 [Ex 12-53, N-(2-(difluoromethoxy)-6-methylpyridin-3-yl)-1-(2-(3-hydroxyazetidin-1-yl)acetyl)-3-(2-isopropylphenyl)azetidine-3-carboxamide]
3 nM	Cc1ccc(NC(=O)C2(c3ccccc3C(C)C)CN(C(=O)CNC[C@@H](C)O)C2)c(OC(F)F)n1 [Ex 12-55, (R)-N-(2-(difluoromethoxy)-6-methylpyridin-3-yl)-1-((R)-(2-hydroxypropyl)glycyl)-3-(2-isopropylphenyl)azetidine-3-carboxamide]
12 nM	Cc1ccc(NC(=O)C2(c3ccccc3C(C)C)CN(C(=O)NC(C)(C)CC(=O)O)C2)c(OC(F)F)n1 [Ex 17-2, 3-(3-((2-(difluoromethoxy)-6-methylpyridin-3-yl)carbamoyl)-3-(2-isopropylphenyl)azetidine-1-carboxamido)-3-methylbutanoic acid]
143 nM	COC(=O)C(C)(C)OC(=O)N1CC(C(=O)Nc2ccc(C)nc2OC(F)F)(c2ccccc2C(C)C)C1 [Ex 14-6, 1-methoxy-2-methyl-1-oxopropan-2-yl 3-((2-(difluoromethoxy)-6-methylpyridin-3-yl)carbamoyl)-3-(2-isopropylphenyl)azetidine-1-carboxylate]
110 nM	C=C(CC(=O)OC)C(=O)N1CC(C(=O)Nc2ccc(C)nc2OC(F)F)(c2ccccc2C(C)C)C1 [Ex 12-92, methyl 3-(3-((2-(difluoromethoxy)-6-methylpyridin-3-yl)carbamoyl)-3-(2-isopropylphenyl)azetidine-1-carbonyl)but-3-enoate]
25 nM	Cc1ccc(NC(=O)C2(c3ccccc3C(C)C)CN(S(=O)(=O)NC(C)C)C2)c(OC(F)F)n1 [Ex 15-12, N-(2-(difluoromethoxy)-6-methylpyridin-3-yl)-3-(2-isopropylphenyl)-1-(N-isopropylsulfamoyl)azetidine-3-carboxamide]
25 nM	Cc1ccc(NC(=O)C2(c3ccccc3C(C)C)CN(C(=O)NC(C)(C)C(=O)O)C2)c(OC(F)F)n1 [Ex 17-13, 2-(3-((2-(difluoromethoxy)-6-methylpyridin-3-yl)carbamoyl)-3-(2-isopropylphenyl)azetidine-1-carboxamido)-2-methylpropanoic acid]
10 nM	Cc1ccc(NC(=O)C2(c3ccccc3C(C)C)CN(C(=O)CNS(N)(=O)=O)C2)c(OC(F)F)n1 [Ex 12-128, N-(2-(difluoromethoxy)-6-methylpyridin-3-yl)-3-(2-isopropylphenyl)-1-(sulfamoylglycyl)azetidine-3-carboxamide]
280 nM	COC(=O)C1(CS(=O)(=O)N2CC(C(=O)Nc3ccc(C)nc3OC(F)F)(c3ccccc3C(C)C)C2)COC1 [Ex 13-15, methyl 3-(((3-((2-(difluoromethoxy)-6-methylpyridin-3-yl)carbamoyl)-3-(2-isopropylphenyl)azetidin-1-yl)sulfonyl)methyl)oxetane-3-carboxylate]
16 nM	Cc1ccc(NC(=O)C2(c3ccccc3C(C)C)CN(c3ncc(C(=O)O)n3C)C2)c(OC(F)F)n1 [Ex 18-36, 2-(3-((2-(difluoromethoxy)-6-methylpyridin-3-yl)carbamoyl)-3-(2-isopropylphenyl)azetidin-1-yl)-1-methyl-1H-imidazole-5-carboxylic acid]
34 nM	Cc1ccc(NC(=O)C2(c3ccccc3C(C)C)CN(c3ncc(C(=O)O)o3)C2)c(OC(F)F)n1 [Ex 18-32, 2-(3-((2-(difluoromethoxy)-6-methylpyridin-3-yl)carbamoyl)-3-(2-isopropylphenyl)azetidin-1-yl)oxazole-5-carboxylic acid]
110 nM	Cc1ccc(NC(=O)C2(c3ccccc3C(C)C)CN(S(=O)(=O)CCC(=O)NOCc3ccccc3)C2)c(OC(F)F)n1 [Ex 13-28, 1-((3-((benzyloxy)amino)-3-oxopropyl)sulfonyl)-N-(2-(difluoromethoxy)-6-methylpyridin-3-yl)-3-(2-isopropylphenyl)azetidine-3-carboxamide]
6 nM	Cc1ccc(NC(=O)C2(c3ccccc3C(C)C)CN(c3nc(C(=O)O)co3)C2)c(OC(F)F)n1 [Ex 18-28, 2-(3-((2-(difluoromethoxy)-6-methylpyridin-3-yl)carbamoyl)-3-(2-isopropylphenyl)azetidin-1-yl)oxazole-4-carboxylic acid]
35 nM	CONC(=O)CC(=O)N1CC(C(=O)Nc2ccc(C)nc2OC(F)F)(c2ccccc2C(C)C)C1 [Ex 12-125, N-(2-(difluoromethoxy)-6-methylpyridin-3-yl)-3-(2-isopropylphenyl)-1-(3-(methoxyamino)-3-oxopropanoyl)azetidine-3-carboxamide]
27 nM	COc1ccc(NC(=O)C2(c3ccccc3C(C)C)CN(C(=O)CC(C)(C)C(=O)O)C2)c(OC)n1 [Ex 12-86, 4-(3-((2,6-dimethoxypyridin-3-yl)carbamoyl)-3-(2-isopropylphenyl)azetidin-1-yl)-2,2-dimethyl-4-oxobutanoic acid]
11 nM	CCOC(=O)C(C)(C)NC(=O)N1CC(C(=O)Nc2ccc(C)nc2OC(F)F)(c2ccccc2C(C)C)C1 [Ex 17-12, ethyl 2-(3-((2-(difluoromethoxy)-6-methylpyridin-3-yl)carbamoyl)-3-(2-isopropylphenyl)azetidine-1-carboxamido)-2-methylpropanoate]
8 nM	CC(=O)N(CC(=O)N1CC(C(=O)Nc2ccc(C)nc2OC(F)F)(c2ccccc2C(C)C)C1)OCc1ccccc1 [Ex 12-135, 1-(N-acetyl-N-(benzyloxy)glycyl)-N-(2-(difluoromethoxy)-6-methylpyridin-3-yl)-3-(2-isopropylphenyl)azetidine-3-carboxamide]
7 nM	Cc1ccc(NC(=O)C2(c3ccccc3C(C)C)CCN(C(=O)CCC(=O)C(F)(F)F)CC2)c(OC(F)F)n1 [Ex 12-12, N-(2-(difluoromethoxy)-6-methylpyridin-3-yl)-4-(2-isopropylphenyl)-1-(5,5,5-trifluoro-4-oxopentanoyl)piperidine-4-carboxamide]
14 nM	Cc1ccc(NC(=O)C2(c3ccccc3C(C)C)CCN(S(=O)(=O)CC(=O)O)CC2)c(OC(F)F)n1 [Ex 13-3, 2-((4-((2-(difluoromethoxy)-6-methylpyridin-3-yl)carbamoyl)-4-(2-isopropylphenyl)piperidin-1-yl)sulfonyl)acetic acid]
123 nM	COc1cc(Cl)cnc1NC(=O)C1(c2ccccc2C(C)C)CN(C(=O)CC(C)(C)C(=O)O)C1 [Ex 79-4, 4-(3-((5-chloro-3-methoxypyridin-2-yl)carbamoyl)-3-(2-isopropylphenyl)azetidin-1-yl)-2,2-dimethyl-4-oxobutanoic acid]

More lines, now with the values behind:

Compound	IC50
Cc1ccc(NC(=O)C2(c3ccccc3C(C)C)CN(CCC(C)(C)C(N)=O)C2)c(OC(F)F)n1 [Ex 11-93, 1-(4-amino-3,3-dimethyl-4-oxobutyl)-N-(2-(difluoromethoxy)-6-methylpyridin-3-yl)-3-(2-isopropylphenyl)azetidine-3-carboxamide]	65 nM
Cc1ccc(NC(=O)C2(c3ccccc3C(C)C)CCNCC2)c(OC(F)F)n1 [Ex 4, N-(2-(difluoromethoxy)-6-methylpyridin-3-yl)-4-(2-isopropylphenyl)piperidine-4-carboxamide]	8 nM
Cc1ccc(NC(=O)C2(c3ccccc3C(C)C)CN(Cc3n[nH]cc3C(=O)O)C2)c(OC(F)F)n1 [Ex 11-40, 3-((3-((2-(difluoromethoxy)-6-methylpyridin-3-yl)carbamoyl)-3-(2-isopropylphenyl)azetidin-1-yl)methyl)-1H-pyrazole-4-carboxylic acid]	270 nM
CCOC(=O)CC(C)(C)CN1CC(C(=O)Nc2ccc(C)nc2OC(F)F)(c2ccccc2C(C)C)C1 [Ex 11-32, ethyl 4-(3-((2-(difluoromethoxy)-6-methylpyridin-3-yl)carbamoyl)-3-(2-isopropylphenyl)azetidin-1-yl)-3,3-dimethylbutanoate]	805 nM
Cc1ccc(NC(=O)C2(c3ccccc3C(C)C)CN(CC3(C(=O)O)CC3)C2)c(OC(F)F)n1 [Ex 11-27, 1-((3-((2-(difluoromethoxy)-6-methylpyridin-3-yl)carbamoyl)-3-(2-isopropylphenyl)azetidin-1-yl)methyl)cyclopropane-1-carboxylic acid]	38 nM
CCOC(=O)CN(C)CCN1CC(C(=O)Nc2ccc(C)nc2OC(F)F)(c2ccccc2C(C)C)C1 [Ex 11-81, Ethyl N-(2-(3-((2-(difluoromethoxy)-6-methylpyridin-3-yl)carbamoyl)-3-(2-isopropylphenyl)azetidin-1-yl)ethyl)-N-methylglycinate]	88 nM
COc1ccc(C(C)C)c(C2(C(=O)Nc3ccc(C)nc3OC(F)F)CNC2)c1 [Ex 38, N-(2-(difluoromethoxy)-6-methylpyridin-3-yl)-3-(2-isopropyl-5-methoxyphenyl)azetidine-3-carboxamide]	287 nM
CC(C)c1ccccc1C1(C(=O)Nc2cc(F)cnc2OC(F)F)CNC1 [Ex 8, N-(2-(difluoromethoxy)-5-fluoropyridin-3-yl)-3-(2-isopropylphenyl)azetidine-3-carboxamide]	338 nM
Cc1ccc(NC(=O)C2(c3ccccc3C(C)C)CCN(C[C@@H](O)CO)CC2)c(OC(F)F)n1 [Ex 11-19, (R)-N-(2-(difluoromethoxy)-6-methylpyridin-3-yl)-1-(2,3-dihydroxypropyl)-4-(2-isopropylphenyl)piperidine-4-carboxamide]	14 nM
Cc1ccc(NC(=O)C2(c3ccccc3C(C)C)CN(CC3COC3)C2)c(OC(F)F)n1 [Ex 11-5, N-(2-(difluoromethoxy)-6-methylpyridin-3-yl)-3-(2-isopropylphenyl)-1-(oxetan-3-ylmethyl)azetidine-3-carboxamide]	29 nM
